Data on 4 molecules can be found in patent US11685732B2, “MYST family histone acetyltransferase inhibitors” (Epizyme, Inc., priority 2017, dated 2023).

pIC50: −log10 of the molar value. Read-outs that look alike come from different tables or passages of the source.

Broadly, the pIC50 is −log10 of the IC50, conventionally taken in molar units. Read a low pIC50 as a large IC50.

Assay [1] relates to OCIAML3 cells. Kind of assay: Long term proliferation assay (14-day), OCIAML3. It is filed as cell-based. To be noted: Homo sapiens, OCI-AML-3, 336 h, 14-day timepoint, absolute IC50. The protocol: (§1) Long term proliferation assay. A panel of multiple myeloma (MM) and acute myeloid leukemia (AML) cell lines were tested in 14-day proliferation assays. Exponentially growing cells were plated, in triplicate, in 96-well plates at the appropriate cell density in a final volume of 150 μL. Cells were incubated in the presence of increasing concentrations of compound A-30. Viable cell number was determined at 0, 4, 7, 11, and 14 days using Calcein staining and using an Accumen instrument to enumerate the number of cells. On days of cell counts, growth media and compound A-30 were replaced, and cells split back to initial density. Total cell number is expressed as split-adjusted viable cells per well.
(§2) Calculations were performed as follows:
(§3) First, the inhibition of proliferation was calculated for each well at each treatment concentration at each timepoint with the following formula:
(§4) [formula] Then, for each cell line, concentration response curves were plotted as average and standard deviation from triplicate determinations as percent inhibition vs log of concentration of compound A-30. Absolute IC50 values (concentration of compound at which 50% inhibition occurs) were determined from the curve at each timepoint using Graphpad Prism software. An IC50 value of ≤10 μM is designated as “A”; an IC50 value of >10 μM is designated as “B”.

Assay [2] relates to NOMO1 cells. Nature of the assay: Long term proliferation assay (14-day), NOMO1. It is filed as cell-based. To be noted: Homo sapiens, NOMO-1, 336 h; NOMO1, AML; 14-day timepoint; absolute IC50. The protocol:
as §1, §2, §3, §4

For assay [3], the system named is H3K23 acetylation in CAL-120 cells. Kind of assay: Inhibition of acetylation of H3K23 in Human cell line CAL-120. It is filed as cell-based. To be noted: CAL-120 cell line, 3 hours, serial dilutions starting at 10 μM; FIG. 1. The protocol: Inhibition of acetylation of H3K23 in Human cell line CAL-120. Cell line CAL-120 was plated in eleven 10 cm tissue culture dishes at a cell density of 4×10^5 cells/cm^2 and treated with ten 2-fold serial dilutions of compound A-30 starting at 10 μM and one dish with DMSO (vehicle control) for 3 hours. Cells were tripsinized, washed twice with ice cold PBS and snap-frozen. Histones were extracted from cell pellets. Protein concentration was assessed and 60 ng of protein sample from histone extraction was prepared in triplicate in 100 μl coating buffer (0.05% w/v BSA in PBS) and added directly to high binding 96 well plates. Plates were left at 4° C. overnight to allow protein to adhere. Coating buffer with histones was discarded and plates blotted, and 100 μL per well of primary antibody solution of rabbit anti-H3K23ac antibody (Millipore 07-355) (1:600) and mouse anti-total H3 antibody (CST-14269) (1:500) in Odyssey buffer with 0.1% Tween 20 (v/v) was added to the wells of the plate and incubated for 1 hour. […]
Calculations were performed as follows: First, the ratio for each well was determined by:
[formula] Then, the average of the ratio values for each test well was calculated and used to determine the percent of H3K23Ac from vehicle for each test well in the plate: […]

In assay [4] the test system is KMS11 cells. Kind of assay: Long term proliferation assay (14-day), KMS11. It is filed as cell-based. To be noted: Homo sapiens, KMS-11, 336 h; KMS11, MM; 14-day timepoint; absolute IC50. The protocol:
as §1, §2, §3, §4

The target in assay [5] is KAT-7 (Homo sapiens (Human), UniProt O95251). Nature of the assay: KAT-7 biochemical inhibition assay (SAMDI mass spectrometry). The gist of the method:
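KAT-7 (6 nM) was pre-incubated with serially diluted compound (2% DMSO) in Tris pH 8.0 with DTT. Reaction with 1 μM peptide and 2 μM acetyl-CoA ran 120 min at 25 °C and was stopped with 0.5% formic acid. Acetylation was read by SAMDI-TOF mass spectrometry to give IC50.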

Assay [6] has as its system LP1 cells. Nature of the assay: Long term proliferation assay (14-day), LP1. To be noted: Homo sapiens, LP-1, 336 h; LP1, MM; 14-day timepoint; absolute IC50. It is filed as cell-based. The protocol: as §1, §2, §3, §4
The subject of assay [7] is SEM cells. Kind of assay: Long term proliferation assay (14-day), SEM. It is filed as cell-based. To be noted: 336 h, B-ALL, 14-day timepoint, absolute IC50. The protocol: as §1, §2, §3, §4
The subject of assay [8] is THP1 cells. Nature of the assay: Long term proliferation assay (14-day), THP1. It is filed as cell-based. To be noted: Homo sapiens, THP-1, 336 h; THP1, AML; 14-day timepoint; absolute IC50. The protocol: as §1, §2, §3, §4
Assay [9] has as its target KAT-6A (Homo sapiens (Human), UniProt Q92794). Nature of the assay: KAT-6A biochemical inhibition assay (SAMDI mass spectrometry). The gist of the method: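 Enzyme (12.5 nM final) pre-incubated with serially diluted compounds (2% DMSO final) in 50 mM Tris pH 8.0 with Tween20, gelatin and 1 mM DTT. Reaction started with 1 μM peptide substrate and 1 μM acetyl-CoA, run 90 min at 25 °C, quenched with 0.5% formic acid, read by SAMDI-TOF mass spectrometry; IC50 derived.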

In assay [10] the test system is RPMI8226 cells. Kind of assay: Long term proliferation assay (14-day), RPMI8226. To be noted: Homo sapiens, RPMI-8226, 336 h; RPMI8226, MM; 14-day timepoint; absolute IC50. It is filed as cell-based. The protocol:
as §1, §2, §3, §4

Assay [11] relates to MOLM13 cells. Kind of assay: Long term proliferation assay (14-day), MOLM13. It is filed as cell-based. To be noted: Homo sapiens, MOLM-13, 336 h; MOLM13, AML; 14-day timepoint; absolute IC50. The protocol: as §1, §2, §3, §4
In assay [12] the test system is KMS34 cells. Nature of the assay: Long term proliferation assay (14-day), KMS34. To be noted: KMS-34, 336 h; KMS34, MM; 14-day timepoint; absolute IC50. It is filed as cell-based. The protocol: as §1, §2, §3, §4
The target in assay [13] is KAT-5 (Homo sapiens (Human), UniProt Q92993). Kind of assay: KAT-5 biochemical inhibition assay (SAMDI mass spectrometry). The gist of the method: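 KAT-5 at 9 nM final was preincubated with serially diluted compound (2% DMSO) in 50 mM Tris pH 8.0 with 1 mM DTT. Reaction ran with 1 μM peptide substrate and 0.5 μM acetyl-CoA for 90 min at 25° C, was quenched with 0.5% formic acid, and was read by SAMDI-TOF mass spectrometry.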

Assay [14] relates to OCIAML2 cells. Kind of assay: Long term proliferation assay (14-day), OCIAML2. It is filed as cell-based. To be noted: Homo sapiens, OCI-AML2, 336 h; OCIAML2, AML; 14-day timepoint; absolute IC50. The protocol: as §1, §2, §3, §4
For assay [15], the target named is KAT-8 (Homo sapiens (Human), UniProt Q9H7Z6). Nature of the assay: KAT-8 biochemical inhibition assay (SAMDI mass spectrometry). The procedure, abridged:
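Compounds in 2% DMSO pre-incubated with 12.5 nM enzyme in 50 mM Tris pH 8.0 with Tween20, gelatin and 1 mM DTT. Then 1 μM peptide and 5 μM acetyl-CoA were added, 90 min at 25 °C; formic acid stop and SAMDI-TOF mass spectrometry for IC50.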

Sequence of KAT-8 (Q9H7Z6 other isoform, or with tags, fused parts or gaps): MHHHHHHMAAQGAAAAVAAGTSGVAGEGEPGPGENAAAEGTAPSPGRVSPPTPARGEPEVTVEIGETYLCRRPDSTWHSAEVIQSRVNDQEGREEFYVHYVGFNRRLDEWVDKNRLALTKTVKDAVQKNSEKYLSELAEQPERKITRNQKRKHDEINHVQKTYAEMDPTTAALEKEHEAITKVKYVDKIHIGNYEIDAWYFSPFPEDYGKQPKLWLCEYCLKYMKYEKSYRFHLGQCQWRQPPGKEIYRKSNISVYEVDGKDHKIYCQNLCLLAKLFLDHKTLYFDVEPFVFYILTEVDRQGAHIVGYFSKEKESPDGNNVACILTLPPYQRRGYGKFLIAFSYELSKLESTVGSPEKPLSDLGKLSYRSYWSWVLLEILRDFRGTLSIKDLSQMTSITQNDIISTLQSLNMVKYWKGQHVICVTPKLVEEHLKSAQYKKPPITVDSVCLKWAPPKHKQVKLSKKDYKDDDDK
Sequence of KAT-6A (Q92794 other isoform, or with tags, fused parts or gaps): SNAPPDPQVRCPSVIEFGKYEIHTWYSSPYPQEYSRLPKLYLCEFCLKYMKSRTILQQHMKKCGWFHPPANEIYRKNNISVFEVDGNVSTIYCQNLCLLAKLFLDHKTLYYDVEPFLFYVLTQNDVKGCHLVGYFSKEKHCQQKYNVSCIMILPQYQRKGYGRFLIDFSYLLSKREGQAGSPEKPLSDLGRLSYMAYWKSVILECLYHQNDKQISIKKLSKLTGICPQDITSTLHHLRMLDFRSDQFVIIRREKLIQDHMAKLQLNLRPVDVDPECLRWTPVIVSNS
Sequence of KAT-7 (O95251 other isoform, or with tags, fused parts or gaps): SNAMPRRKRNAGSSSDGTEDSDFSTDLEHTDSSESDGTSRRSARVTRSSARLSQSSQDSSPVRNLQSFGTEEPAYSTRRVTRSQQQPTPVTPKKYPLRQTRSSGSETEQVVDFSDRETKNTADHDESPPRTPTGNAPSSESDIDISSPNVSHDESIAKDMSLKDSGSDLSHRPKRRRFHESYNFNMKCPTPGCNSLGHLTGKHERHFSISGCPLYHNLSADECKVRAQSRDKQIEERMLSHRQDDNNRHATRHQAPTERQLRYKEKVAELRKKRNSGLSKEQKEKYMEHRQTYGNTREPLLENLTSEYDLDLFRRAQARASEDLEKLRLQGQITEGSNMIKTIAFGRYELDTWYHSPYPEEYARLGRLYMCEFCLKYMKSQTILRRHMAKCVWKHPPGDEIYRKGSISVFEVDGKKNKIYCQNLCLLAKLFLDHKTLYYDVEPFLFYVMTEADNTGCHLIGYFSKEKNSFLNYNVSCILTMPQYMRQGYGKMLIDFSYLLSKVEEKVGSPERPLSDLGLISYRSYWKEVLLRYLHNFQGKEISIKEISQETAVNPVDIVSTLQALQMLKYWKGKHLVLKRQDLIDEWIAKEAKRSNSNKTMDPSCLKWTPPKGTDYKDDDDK
Sequence of KAT-5 (Q92993 other isoform, or with tags, fused parts or gaps): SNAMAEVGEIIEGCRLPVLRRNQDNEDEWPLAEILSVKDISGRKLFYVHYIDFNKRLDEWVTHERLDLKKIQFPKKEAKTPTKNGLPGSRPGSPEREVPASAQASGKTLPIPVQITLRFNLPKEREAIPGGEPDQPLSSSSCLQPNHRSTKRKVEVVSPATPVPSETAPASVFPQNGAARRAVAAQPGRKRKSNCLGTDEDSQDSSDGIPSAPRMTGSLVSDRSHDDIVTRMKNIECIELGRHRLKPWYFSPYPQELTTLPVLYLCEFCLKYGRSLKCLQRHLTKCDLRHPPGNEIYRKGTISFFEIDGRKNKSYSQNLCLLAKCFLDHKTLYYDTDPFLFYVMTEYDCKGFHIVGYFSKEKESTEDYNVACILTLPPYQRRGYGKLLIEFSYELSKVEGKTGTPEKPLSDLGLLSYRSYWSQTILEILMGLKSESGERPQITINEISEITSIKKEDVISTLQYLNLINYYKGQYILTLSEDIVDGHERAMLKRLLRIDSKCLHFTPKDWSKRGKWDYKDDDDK

Consider `COCc1cc(Cl)c(F)c(C(=O)NNS(=O)(=O)c2cccc(O)c2)c1` [Compound A-30], for which the pIC50 in assay [1] is at least 5.00; in assay [2] it was at least 5.00; in assay [4] it was at least 5.00; in assay [5] (Table 5), at least 5.00; in [6], at least 5.00; in [7], under 5.00. Besides, the pIC50 is under 5.00 in assay [8]; at least 6.00 in assay [9] (Table 5); at least 5.00 in assay [10]; under 5.00 in [11]; at least 5.00 in [12]; at least 5.00 in assay [13] (Table 5). Besides, the pIC50 in [14] was under 5.00. Moreover, in assay [3], the “inhibition of acetylation of H3K23” value is on record as “inhibition of acetylation of H3 K23”.

As to `Cn1cnc(-c2cc(Cl)c(F)c(C(=O)NNS(=O)(=O)C[C@H]3CCCO3)c2)c1` [Compound I-388], the pIC50 is over 5.00 in assay [5], under 4.00 in [15], over 5.00 in assay [9] and over 5.00 in [13].

With `Cn1cnc(-c2cc(Cl)c(F)c(C(=O)NNS(=O)(=O)C[C@@H]3CCCO3)c2)c1` [Compound I-389], the pIC50 in assay [5] was over 5.00; in [15], under 4.00; in [9], over 5.00; in assay [13] it was over 5.00.

Consider `Cc1cc(-c2ccccc2)cc(C(=O)NNS(=O)(=O)CC2CCCNC2)c1F` (centres unmarked) [D, reference compound], for which the pIC50 in [5] (Table 6, comparative compounds) was under 4.00; in assay [15] (Table 6, comparative compounds), under 4.00; in assay [9] (Table 6, comparative compounds), under 4.00; in assay [13] (Table 6, comparative compounds) it was 4.30 to 5.00.
